Several values for one entry are separate records, joined by “and”; a condition that tells them apart may be missing. Equal entries are not always repeated.
System: BDF1 mice, Adenocarcinoma 755 s.c., tumor weight T/C
Assay: NCI In Vivo Anticancer Drug Screen. Data for tumor model Adenocarcinoma 755 (subcutaneous) in B6D2F1 (BDF1) mice
Settings: endpoint: mean tumor weight, higher = larger tumour
How it was run: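 Readout: T/C, i.e. treated-group measurement over vehicle-control measurement. Endpoint is survival or tumor size in tumor-bearing mice given compound.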

[1] = dose: 44.0 mg/kg/injection, schedule: Q01DX011 (sc), vehicle: steriod suspending solution
[2] = dose: 400.0 mg/kg/injection, schedule: Q01DX011 (ip), vehicle: carboxymethylcellulose (CMC)
[3] = dose: 600.0 mg/kg/injection, schedule: Q01DX011 (ip), vehicle: carboxymethylcellulose (CMC)

Q: For CC(=O)OCC(=O)[C@@]1(O)CC[C@H]2[C@@H]3C[C@H](C)C4=CC(=O)CC[C@]4(C)[C@H]3[C@@H](O)C[C@@]21C, which T/C (dose: 2.75 mg/kg/injection, schedule: Q01DX011 (sc), vehicle: steriod suspending solution) is on record?
A: Its T/C is 73 % of control.

Q: What about the T/C (dose: 5.5 mg/kg/injection, schedule: Q01DX011 (sc), vehicle: steriod suspending solution) of the same molecule?
A: The T/C was 55 % of control and 71 % of control.

Q: What about the T/C (dose: 22.0 mg/kg/injection, schedule: Q01DX011 (sc), vehicle: water) of the same molecule?
A: Its T/C is 19 % of control.

Q: What about the T/C [1] of the same molecule?
A: Its T/C is 42 % of control.

Q: What about the T/C (dose: 44.0 mg/kg/injection, schedule: Q01DX011 (sc), vehicle: water) of the same molecule?
A: Its T/C is 14 % of control and 20 % of control.

Q: And the T/C (dose: 87.0 mg/kg/injection, schedule: Q01DX011 (sc), vehicle: steriod suspending solution)?
A: The T/C was 50 % of control.

Q: And the T/C (dose: 87.5 mg/kg/injection, schedule: Q01DX011 (sc), vehicle: water)?
A: The T/C was 11 % of control and 15 % of control.

Q: And the T/C (dose: 175.0 mg/kg/injection, schedule: Q01DX011 (sc), vehicle: steriod suspending solution)?
A: The T/C was 25 % of control.

Q: What about the T/C (dose: 175.0 mg/kg/injection, schedule: Q01DX011 (sc), vehicle: water) of the same molecule?
A: The T/C was 3 % of control and 4 % of control.

Q: With CN(C)N=Nc1ccc(C(=O)NC(CCC(=O)NN)C(=O)NN)cc1 (stereo not given) as the molecule, how does the T/C (dose: 100.0 mg/kg/injection, schedule: Q01DX011 (ip), vehicle: saline) read?
A: The T/C was 92 % of control.

Q: And the T/C (dose: 150.0 mg/kg/injection, schedule: Q01DX011 (ip), vehicle: saline)?
A: Its T/C is 81 % of control.

Q: What does the source list for CC(C)CCS(=O)(=O)OCCCCOS(=O)(=O)CCC(C)C?
A: T/C (dose: 75.0 mg/kg/injection, schedule: Q01DX011 (ip), vehicle: methylcellulose (MC)): 67 % of control; T/C (dose: 100.0 mg/kg/injection, schedule: Q01DX011 (ip), vehicle: methylcellulose (MC)): 34 % of control; T/C (dose: 150.0 mg/kg/injection, schedule: Q01DX011 (ip), vehicle: methylcellulose (MC)): 89 % of control; T/C (dose: 200.0 mg/kg/injection, schedule: Q01DX011 (ip), vehicle: methylcellulose (MC)): 5 % of control; T/C (dose: 300.0 mg/kg/injection, schedule: Q01DX011 (ip), vehicle: methylcellulose (MC)): 60 % of control; T/C [2]: 56 % of control; T/C (dose: 400.0 mg/kg/injection, schedule: Q01DX011 (ip), vehicle: methylcellulose (MC)): 20 % of control; T/C [3]: 33 % of control; T/C (dose: 600.0 mg/kg/injection, schedule: Q01DX011 (ip), vehicle: methylcellulose (MC)): 75 % of control

Q: With C[C@]12CCCC[C@@H]1CC[C@@H]1[C@@H]2[C@@H](O)C[C@]2(C)[C@@H](N)CC[C@@H]12 as the molecule, how does the T/C (dose: 22.0 mg/kg/injection, schedule: Q01DX011 (sc), vehicle: steriod suspending solution) read?
A: Its T/C is 106 % of control.

Q: What about the T/C [1] of the same molecule?
A: Its T/C is 74 % of control.

Q: How did the T/C (dose: 1.9 mg/kg/injection, schedule: Q01DX011 (ip), vehicle: methylcellulose (MC)) turn out when C=CC(O)CN1CC1C (stereo not given) (tested in a mixture with another compound) was run?
A: Its T/C is 85 % of control.

Q: And the T/C (dose: 3.75 mg/kg/injection, schedule: Q01DX011 (ip), vehicle: methylcellulose (MC))?
A: Its T/C is 100 % of control.

Q: And the T/C (dose: 7.5 mg/kg/injection, schedule: Q01DX011 (ip), vehicle: methylcellulose (MC))?
A: The T/C was 97 % of control.

Q: What about the T/C (dose: 15.0 mg/kg/injection, schedule: Q01DX011 (ip), vehicle: methylcellulose (MC)) of the same molecule?
A: Its T/C is 71 % of control.

Q: Which T/C (dose: 30.0 mg/kg/injection, schedule: Q01DX011 (ip), vehicle: carboxymethylcellulose (CMC)) does the source give for Nc1cnc(=O)[nH]c1N here?
A: The T/C was 92 % of control.

Q: And the T/C (dose: 60.0 mg/kg/injection, schedule: Q01DX011 (ip), vehicle: carboxymethylcellulose (CMC))?
A: Its T/C is 92 % of control.

Q: And the T/C (dose: 120.0 mg/kg/injection, schedule: Q01DX011 (ip), vehicle: carboxymethylcellulose (CMC))?
A: The T/C was 122 % of control.

Q: What about the T/C [2] of the same molecule?
A: The T/C was 78 % of control.

Q: And the T/C [3]?
A: Its T/C is 96 % of control.

Q: How did the T/C (dose: 15.0 mg/kg/injection, schedule: Q01DX011 (ip), vehicle: saline) turn out when COC(=O)c1cc(=O)[nH]c(N)n1 was run?
A: Its T/C is 101 % of control.

Q: And the T/C (dose: 31.0 mg/kg/injection, schedule: Q01DX011 (ip), vehicle: saline)?
A: Its T/C is 150 % of control.

Q: And the T/C (dose: 62.0 mg/kg/injection, schedule: Q01DX011 (ip), vehicle: saline)?
A: Its T/C is 97 % of control.

Q: And the T/C (dose: 125.0 mg/kg/injection, schedule: Q01DX011 (ip), vehicle: saline)?
A: The T/C was 81 % of control.

Q: What about the T/C (dose: 250.0 mg/kg/injection, schedule: Q01DX011 (ip), vehicle: saline) of the same molecule?
A: The T/C was 113 % of control.

Q: For CN(CC#N)/N=N/c1nc[nH]c1C(N)=O, which T/C (dose: 37.0 mg/kg/injection, schedule: Q01DX011 (ip), vehicle: carboxymethylcellulose (CMC)) is on record?
A: The T/C was 108 % of control.

Q: And the T/C (dose: 75.0 mg/kg/injection, schedule: Q01DX011 (ip), vehicle: carboxymethylcellulose (CMC))?
A: Its T/C is 73 % of control.

Q: What does the source list for C/C(=N\NC(=O)c1ccncc1)c1cc(Cl)ccc1Cl?
A: T/C (dose: 30.0 mg/kg/injection, schedule: Q01DX011 (ip), vehicle: methylcellulose (MC)): 51 % of control; T/C (dose: 60.0 mg/kg/injection, schedule: Q01DX011 (ip), vehicle: methylcellulose (MC)): 27 % of control
